Laboratory results as given in patent publication US20220184080A1 (Aerovate Therapeutics, Inc., priority 2019, published 2022).

Experiment: thermal stability of imatinib salt forms
Format: physicochemical
Settings: method not described

Row | thermal stability | Molecule
1 | suitable thermal stability | malate
2 | suitable thermal stability | malonate
3 | suitable thermal stability | O=S(=O)(O)CCO [isethionate]

Row | Molecule | thermal stability
4 | tartrate | suitable thermal stability
